Tests used:
A549 cells [1] = test: Intracellular ATP level of A549 cells with or without antimycin A; type: cell-based; settings: presence versus absence of antimycin A (10 nM)
Description: (§1) A high-throughput assay was developed for identification of new inhibitors of glycolysis. The effect of the pyrrolidinone library on intracellular ATP level of A549 cells was tested in either the presence or absence of antimycin A (inhibitor of mitochondrial electron-transport chain). […] Initial hits were further verified by evaluating their effects on lactate production. Since lactate is a toxic end-product of glycolysis effluxed to the intercellular space, treatment of cells with glycolytic inhibitors should lead to decreased levels of lactate in cell culture medium.

A549 cells [2] = test: Cancer cell proliferation, A549; type: cell-based
Description: (§2) Since respiration and glycolysis are tightly coupled in eukaryotic cells, a combination of suppressors of respiration with inhibitors of glycolysis were tested for cytotoxic phenotype.

CHO-K1 cells = test: Cell proliferation, CHO-K1; type: cell-based
Description: as §2

glycolysis = test: Lactate production in cell culture medium; type: cell-based
Description: as §1

cells = test: Cell cycle arrest; type: cell-based
U-87MG glioma cells = test: Combination of respiration suppressor and glycolysis inhibitor, cytotoxicity; type: cell-based; settings: in combination with leucascandrolide A
Description: as §2

tumor cells = test: Sensitisation of tumor cells to 2-deoxyglucose; type: cell-based
Description: as §2

[3] = tested on: cellular glucose consumption; test: Cellular glucose consumption; type: cell-based
caspase-3/7 = test: Time-dependence of caspase-3/7 activation; type: cell-based; settings: HL-60 cells, time after treatment
hACC2 = target: T1, hACC2 (Homo sapiens, UniProt O00763); settings: reference ACC inhibitor; cited from earlier work
T1 construct: expressed in transfected cells; host or cells: Saccharomyces cerevisiae
T1 sequence (O00763 whole entry): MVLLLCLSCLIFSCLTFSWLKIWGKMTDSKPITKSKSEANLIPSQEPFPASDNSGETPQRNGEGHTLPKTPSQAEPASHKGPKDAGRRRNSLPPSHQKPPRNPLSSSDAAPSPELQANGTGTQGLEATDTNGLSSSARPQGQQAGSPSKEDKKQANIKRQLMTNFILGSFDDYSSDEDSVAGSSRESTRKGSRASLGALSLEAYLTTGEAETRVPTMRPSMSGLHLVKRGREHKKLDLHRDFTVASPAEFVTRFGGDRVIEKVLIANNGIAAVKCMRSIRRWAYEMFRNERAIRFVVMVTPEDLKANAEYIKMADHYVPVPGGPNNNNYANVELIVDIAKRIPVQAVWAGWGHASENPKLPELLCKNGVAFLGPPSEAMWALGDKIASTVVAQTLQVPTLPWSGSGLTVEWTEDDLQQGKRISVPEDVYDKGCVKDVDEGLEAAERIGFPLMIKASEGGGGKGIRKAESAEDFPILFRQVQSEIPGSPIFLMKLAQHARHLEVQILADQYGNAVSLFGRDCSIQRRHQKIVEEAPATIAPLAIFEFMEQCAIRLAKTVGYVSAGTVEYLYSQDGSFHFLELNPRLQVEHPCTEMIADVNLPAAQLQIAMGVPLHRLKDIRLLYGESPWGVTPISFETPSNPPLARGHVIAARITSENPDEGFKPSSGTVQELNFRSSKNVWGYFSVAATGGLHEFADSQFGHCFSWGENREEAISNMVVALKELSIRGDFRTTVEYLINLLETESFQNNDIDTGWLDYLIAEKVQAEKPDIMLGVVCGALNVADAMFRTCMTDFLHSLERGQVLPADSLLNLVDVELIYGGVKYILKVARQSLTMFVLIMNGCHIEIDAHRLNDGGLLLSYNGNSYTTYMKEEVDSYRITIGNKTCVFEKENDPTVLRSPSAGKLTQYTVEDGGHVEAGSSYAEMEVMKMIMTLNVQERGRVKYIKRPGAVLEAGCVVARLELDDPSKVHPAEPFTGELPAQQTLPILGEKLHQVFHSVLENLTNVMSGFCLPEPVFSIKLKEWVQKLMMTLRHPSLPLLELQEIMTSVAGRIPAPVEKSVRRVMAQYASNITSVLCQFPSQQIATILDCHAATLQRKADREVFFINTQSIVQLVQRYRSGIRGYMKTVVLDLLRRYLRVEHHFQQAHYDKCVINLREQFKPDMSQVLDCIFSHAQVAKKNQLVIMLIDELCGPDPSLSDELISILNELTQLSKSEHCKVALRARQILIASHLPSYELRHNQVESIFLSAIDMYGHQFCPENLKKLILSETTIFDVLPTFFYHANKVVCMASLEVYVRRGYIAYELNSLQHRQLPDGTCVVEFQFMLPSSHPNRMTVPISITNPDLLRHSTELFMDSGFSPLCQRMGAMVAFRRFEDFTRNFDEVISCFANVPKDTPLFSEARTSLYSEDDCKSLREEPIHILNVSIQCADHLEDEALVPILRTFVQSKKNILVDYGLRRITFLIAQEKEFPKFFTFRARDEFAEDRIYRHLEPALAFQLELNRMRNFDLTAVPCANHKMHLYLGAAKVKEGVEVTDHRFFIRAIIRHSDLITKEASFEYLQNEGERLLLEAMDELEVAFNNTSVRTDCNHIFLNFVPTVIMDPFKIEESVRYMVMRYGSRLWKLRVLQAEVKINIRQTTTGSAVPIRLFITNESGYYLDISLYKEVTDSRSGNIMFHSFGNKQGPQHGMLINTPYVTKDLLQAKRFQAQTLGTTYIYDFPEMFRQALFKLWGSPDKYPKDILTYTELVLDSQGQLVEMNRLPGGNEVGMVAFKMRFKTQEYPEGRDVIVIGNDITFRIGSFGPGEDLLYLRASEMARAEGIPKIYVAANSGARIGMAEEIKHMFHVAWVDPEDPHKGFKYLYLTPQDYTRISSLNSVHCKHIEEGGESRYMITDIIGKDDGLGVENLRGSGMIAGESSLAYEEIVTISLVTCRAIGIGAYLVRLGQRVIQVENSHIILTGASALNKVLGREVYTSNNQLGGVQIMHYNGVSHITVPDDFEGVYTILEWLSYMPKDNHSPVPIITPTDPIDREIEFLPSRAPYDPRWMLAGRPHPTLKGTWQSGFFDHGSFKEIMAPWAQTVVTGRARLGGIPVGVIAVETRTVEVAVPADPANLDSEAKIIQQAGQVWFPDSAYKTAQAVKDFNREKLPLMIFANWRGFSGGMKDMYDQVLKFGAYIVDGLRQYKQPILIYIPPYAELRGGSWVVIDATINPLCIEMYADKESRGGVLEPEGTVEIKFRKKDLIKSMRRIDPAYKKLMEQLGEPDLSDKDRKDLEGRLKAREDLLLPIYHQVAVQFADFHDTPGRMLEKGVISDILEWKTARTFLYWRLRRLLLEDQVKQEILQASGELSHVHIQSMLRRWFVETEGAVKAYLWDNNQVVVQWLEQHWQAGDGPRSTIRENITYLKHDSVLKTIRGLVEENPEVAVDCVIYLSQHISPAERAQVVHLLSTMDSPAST

Molecule	suppression of ATP production (A549 cells [1])	effect on cancer cell proliferation (A549 cells [2])	effect on cell proliferation (CHO-K1 cells)	lactate production (glycolysis)	cell cycle arrest (cells)	other results
COC(=O)[C@@]12CCCCC=C1N(CCC1=CCCCC1)C(=O)[C@H]2CC(=O)NCc1ccc(OC)c(OC)c1 [Example P8A7]	suppressed ATP production more efficiently in the presence of antimycin A	cytostatic effect	cytostatic effect	inhibited lactate production	arrested cells in G1 phase	cell death on combined treatment (U-87MG glioma cells): severe cell death
rhodamine 123						sensitisation of tumor cells to 2-deoxyglucose (tumor cells): hypersensitized tumor cells to treatment with 2-deoxyglucose
COC(=O)[C@@]12CCCCC/C=C\1N(Cc1cccc3ccccc13)C(=O)[C@H]2CC(=O)N1CCN(C(=O)c2ccco2)CC1 [Example P9E11]	suppressed ATP production more efficiently in the presence of antimycin A	cytostatic effect	cytostatic effect	inhibited lactate production	arrested cells in G1 phase	cellular glucose consumption [3]: rapidly inhibited cellular glucose consumption; activity profile compared with cytochalasin B ([3]; cytochalasin B is an established inhibitor of glucose transport): essentially identical activity profile to cytochalasin B
CN[C@@H]1C[C@H]2O[C@@](C)([C@@H]1OC)n1c3ccccc3c3c4c(c5c6ccccc6n2c5c31)C(=O)NC4 [staurosporine]						caspase-3/7 activation over time (caspase-3/7): increased activity between 3 and 6 hours after treatment, after which activity decreased
CC(C#Cc1cnc(Oc2ccc(Oc3ccccc3)cc2)s1)N(O)C(N)=O (stereo not shown) [Example A-80040]						ACC2 specificity (hACC2): certain level of ACC2 specificity

Source: US8445481B2, “Scaffold-diversified pyrrolidinone derivatives and their use” (The University of Chicago, priority 2007, dated 2013)
